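Following 48 hours of exposure in 96-well plates, responses at five concentrations were used to interpolate endpoints linearly. The concentration for full growth arrest is given as TGI.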
Experiments:
Experiment in all cases: NCI tumour cell line growth inhibition, 48 h
786-0 renal = test system: 786-0 renal
SR leukemia = test system: SR leukemia
SK-MEL-5 melanoma = test system: SK-MEL-5 melanoma
SK-MEL-28 melanoma = test system: SK-MEL-28 melanoma
HOP-92 NSCLC = test system: HOP-92 NSCLC
NCI-H23 lung = test system: NCI-H23 lung
UACC-62 melanoma = test system: UACC-62 melanoma
SF-539 CNS = test system: SF-539 CNS
PC-3 prostate = test system: PC-3 prostate
NCI-H226 lung = test system: NCI-H226 lung
MCF7 breast = test system: MCF7 breast
IGROV1 ovarian = test system: IGROV1 ovarian
MDA-N = test system: MDA-N
CCRF-CEM leukemia = test system: CCRF-CEM leukemia
NCI/ADR-RES ovarian = test system: NCI/ADR-RES ovarian
OVCAR-8 ovarian = test system: OVCAR-8 ovarian
NCI-H460 lung = test system: NCI-H460 lung
HS 578T breast = test system: HS 578T breast
LOX IMVI melanoma = test system: LOX IMVI melanoma
COLO 205 colon = test system: COLO 205 colon
SN12C renal = test system: SN12C renal
MALME-3M melanoma = test system: MALME-3M melanoma
TK-10 renal = test system: TK-10 renal
HCC-2998 colon = test system: HCC-2998 colon
HL-60(TB) leukemia = test system: HL-60(TB) leukemia
MOLT-4 leukemia = test system: MOLT-4 leukemia
HCT-15 colon = test system: HCT-15 colon
SK-MEL-2 melanoma = test system: SK-MEL-2 melanoma
ACHN renal = test system: ACHN renal
A498 renal = test system: A498 renal
RPMI-8226 leukemia = test system: RPMI-8226 leukemia
HCT-116 colon = test system: HCT-116 colon
NCI-H522 lung = test system: NCI-H522 lung
U251 CNS = test system: U251 CNS
UACC-257 melanoma = test system: UACC-257 melanoma
MDA-MB-231 breast = test system: MDA-MB-231 breast
SW-620 colon = test system: SW-620 colon
SF-268 CNS = test system: SF-268 CNS
BT-549 breast = test system: BT-549 breast
K-562 leukemia = test system: K-562 leukemia
UO-31 renal = test system: UO-31 renal
OVCAR-5 ovarian = test system: OVCAR-5 ovarian
DU-145 prostate = test system: DU-145 prostate
EKVX NSCLC = test system: EKVX NSCLC
A549 NSCLC = test system: A549 NSCLC
RXF 393 renal = test system: RXF 393 renal
T-47D breast = test system: T-47D breast
OVCAR-4 ovarian = test system: OVCAR-4 ovarian
KM12 colon = test system: KM12 colon
SNB-75 CNS = test system: SNB-75 CNS
SF-295 CNS = test system: SF-295 CNS
CAKI-1 renal = test system: CAKI-1 renal
HOP-62 NSCLC = test system: HOP-62 NSCLC
M14 melanoma = test system: M14 melanoma
MDA-MB-435 = test system: MDA-MB-435
SNB-19 CNS = test system: SNB-19 CNS
OVCAR-3 ovarian = test system: OVCAR-3 ovarian
SK-OV-3 ovarian = test system: SK-OV-3 ovarian

Nc1c2c(nc3ccccc13)-c1ccccc1CC2
TGI (786-0 renal): 14.1 µM
TGI (SR leukemia): 9.31 µM
TGI (SK-MEL-5 melanoma): 15.3 µM
TGI (SK-MEL-28 melanoma): 22.8 µM
TGI (HOP-92 NSCLC): 21.9 µM
TGI (NCI-H23 lung): 27.2 µM
TGI (UACC-62 melanoma): 21.4 µM
TGI (SF-539 CNS): 15.1 µM
TGI (PC-3 prostate): 14.4 µM
TGI (NCI-H226 lung): 31.5 µM
TGI (MCF7 breast): 13.8 µM
TGI (IGROV1 ovarian): 19.8 µM
TGI (MDA-N): 16 µM
TGI (CCRF-CEM leukemia): 18.9 µM
TGI (NCI/ADR-RES ovarian): 27.8 µM
TGI (OVCAR-8 ovarian): 18 µM
TGI (NCI-H460 lung): 6.22 µM
TGI (HS 578T breast): 40.5 µM
TGI (LOX IMVI melanoma): 15.5 µM
TGI (COLO 205 colon): 15.8 µM
TGI (SN12C renal): 16.9 µM
TGI (MALME-3M melanoma): 20.8 µM
TGI (TK-10 renal): 14.7 µM
TGI (HCC-2998 colon): 2.81 µM
TGI (HL-60(TB) leukemia): 14.5 µM
TGI (MOLT-4 leukemia): 9.23 µM
TGI (HCT-15 colon): 17.5 µM
TGI (SK-MEL-2 melanoma): 23 µM
TGI (ACHN renal): 14.1 µM
TGI (A498 renal): 16.2 µM
TGI (RPMI-8226 leukemia): 21.7 µM
TGI (HCT-116 colon): 13.5 µM
TGI (NCI-H522 lung): 24.5 µM
TGI (U251 CNS): 15.8 µM
TGI (UACC-257 melanoma): 9.09 µM
TGI (MDA-MB-231 breast): 17.8 µM
TGI (SW-620 colon): 14.8 µM
TGI (SF-268 CNS): 22.3 µM
TGI (BT-549 breast): 27 µM
TGI (K-562 leukemia): 17.3 µM

Cc1n[nH]c(=O)n1/N=C/c1ccc(Cl)cc1
TGI (786-0 renal): > 100 µM
TGI (SR leukemia): > 100 µM
TGI (UO-31 renal): > 100 µM
TGI (SK-MEL-28 melanoma): > 100 µM
TGI (HOP-92 NSCLC): > 100 µM
TGI (OVCAR-5 ovarian): > 100 µM
TGI (DU-145 prostate): > 100 µM
TGI (NCI-H23 lung): > 100 µM
TGI (UACC-62 melanoma): > 100 µM
TGI (SF-539 CNS): > 100 µM
TGI (EKVX NSCLC): 72.5 µM
TGI (A549 NSCLC): > 100 µM
TGI (RXF 393 renal): 72.3 µM
TGI (T-47D breast): > 100 µM
TGI (MDA-N): > 100 µM
TGI (CCRF-CEM leukemia): 94.8 µM
TGI (OVCAR-4 ovarian): > 100 µM
TGI (KM12 colon): > 100 µM
TGI (SNB-75 CNS): > 100 µM
TGI (NCI/ADR-RES ovarian): > 100 µM
TGI (OVCAR-8 ovarian): > 100 µM
TGI (NCI-H460 lung): > 100 µM
TGI (COLO 205 colon): > 100 µM
TGI (SN12C renal): > 100 µM
TGI (SF-295 CNS): > 100 µM
TGI (HCC-2998 colon): > 100 µM
TGI (CAKI-1 renal): > 100 µM
TGI (HOP-62 NSCLC): > 100 µM
TGI (M14 melanoma): > 100 µM
TGI (MOLT-4 leukemia): > 100 µM
TGI (HCT-15 colon): > 100 µM
TGI (ACHN renal): > 100 µM
TGI (MDA-MB-435): > 100 µM
TGI (A498 renal): > 100 µM
TGI (RPMI-8226 leukemia): > 100 µM
TGI (HCT-116 colon): > 100 µM
TGI (NCI-H522 lung): > 100 µM
TGI (UACC-257 melanoma): > 100 µM
TGI (SNB-19 CNS): > 100 µM
TGI (SW-620 colon): > 100 µM
TGI (OVCAR-3 ovarian): > 100 µM
TGI (SF-268 CNS): > 100 µM
TGI (BT-549 breast): > 100 µM
TGI (SK-OV-3 ovarian): > 100 µM
TGI (K-562 leukemia): > 100 µM

N#Cc1c(-c2ccccc2)/c(=C\Nc2cccc(C(F)(F)F)c2)c(=O)n2c1nc1ccccc12
TGI (786-0 renal): > 100 µM
TGI (SK-MEL-5 melanoma): > 100 µM
TGI (UO-31 renal): 22.1 µM
TGI (SK-MEL-28 melanoma): > 100 µM
TGI (OVCAR-5 ovarian): > 100 µM
TGI (NCI-H23 lung): > 100 µM
TGI (SF-539 CNS): 37.8 µM
TGI (PC-3 prostate): > 100 µM
TGI (NCI-H226 lung): 80.9 µM
TGI (EKVX NSCLC): 74.2 µM
TGI (A549 NSCLC): > 100 µM
TGI (MCF7 breast): > 100 µM
TGI (RXF 393 renal): 78.1 µM
TGI (T-47D breast): > 100 µM
TGI (IGROV1 ovarian): > 100 µM
TGI (MDA-N): 91.4 µM
TGI (CCRF-CEM leukemia): > 100 µM
TGI (OVCAR-4 ovarian): > 100 µM
TGI (KM12 colon): 53.4 µM
TGI (SNB-75 CNS): > 100 µM
TGI (NCI/ADR-RES ovarian): 80.4 µM
TGI (OVCAR-8 ovarian): 51.5 µM
TGI (NCI-H460 lung): > 100 µM
TGI (LOX IMVI melanoma): > 100 µM
TGI (COLO 205 colon): > 100 µM
TGI (SN12C renal): 50.5 µM
TGI (SF-295 CNS): > 100 µM
TGI (MALME-3M melanoma): > 100 µM
TGI (TK-10 renal): > 100 µM
TGI (HCC-2998 colon): > 100 µM
TGI (CAKI-1 renal): 14.2 µM
TGI (HOP-62 NSCLC): > 100 µM
TGI (M14 melanoma): > 100 µM
TGI (HCT-15 colon): > 100 µM
TGI (SK-MEL-2 melanoma): > 100 µM
TGI (ACHN renal): > 100 µM
TGI (MDA-MB-435): > 100 µM
TGI (A498 renal): > 100 µM
TGI (RPMI-8226 leukemia): 39.9 µM
TGI (HCT-116 colon): > 100 µM
TGI (NCI-H522 lung): 32.1 µM
TGI (U251 CNS): > 100 µM
TGI (UACC-257 melanoma): > 100 µM
TGI (MDA-MB-231 breast): > 100 µM
TGI (SNB-19 CNS): > 100 µM
TGI (SW-620 colon): > 100 µM
TGI (SF-268 CNS): > 100 µM
TGI (BT-549 breast): > 100 µM
TGI (SK-OV-3 ovarian): 91.6 µM
